Results: publication PMC1713233, “Implantation Serine Proteinases heterodimerize and are critical in hatching and implantation” (BMC Developmental Biology, 2006)
Where a name gives a salt, the structure may show the parent alone. Read-outs that look alike come from different tables or passages of the source.

Tests used:
[1] = target: T1, ISP1-ISP2 enzyme complex (Mus musculus, UniProt Q924N9+Q99MS4); experiment: Inhibition of proteolytic activity of ISP enzyme complex, chromogenic assay with BAPNA as substrate; format: biochemical; details: for Ki: from IC50 by Cheng and Prusoff equation, read-out: Dissociation Constant (Ki); for Influence on ISP activity: general trypsin inhibitors; for Affinity for ISP enzyme: Fig. 4B, compared to Benzamidine
T1 construct: The native ISP enzyme complex was purified from mouse uterine tissue homogenates; from tissue; host or cells: uterus of pregnant CD1 mice (4.5-6.5 dpc)
Protocol: Many general serine proteinase inhibitors were tested in order to identify suitable ISP inhibitors when BAPNA was used as a substrate. These included Benzamidine hydrochloride, 4-(Amidino-Phenyl)-Methane-Sulfonyl Fluoride (APMSF), L-1 Chloro-3- [4-tosyl-amido]-7-amino-2-heptanone. HCl (TLCK), Trypsin Soybean Inhibitor (TSI), Bis (5-amidino-2-benzimadozolyl) methane (BABIM), Gabexate mesylate, Nafamostat, and the kunitz family serpins Uterine Plasmin-Trypsin Inhibitor (UPTI) and Secretary Leukocyte proteinase inhibitor (SLPI).
Only inhibitors specific for trypsin-like serine proteinases were able to inhibit the ISPs (Fig. 4B and Additional file 2. Table 1). IC50 (concentration of an inhibitor capable of inhibiting the enzyme activity by 50%) values were obtained by plotting inhibition data, which were extrapolated into Cheng and Prusoff's equation to derive the dissociation constant (Ki).
Chromogenic assays were carried out using the p-Nitroanilide conjugated peptidic substrates. The reaction conditions used were: 4 mM BAPNA (substrate), in 25 mM Tris.Cl (pH 8.0) and 10 mM EDTA reaction buffer, in a total reaction volume of 0.5 mL. The reactions were carried out at room temperature in a glass cuvette (1 cm path length), and scanned at wavelength maxima of 405 nm using a spectrophotometer. 1 Unit of enzyme is defined as enzyme activity sufficient for the breakdown of 1 μM of substrate/ml/min. The affinity of ISP complex with various substrates was characterized by measuring enzyme activity at differing substrate concentrations and plotting enzyme activity [V] vs. substrate concentration [S]. The Km was calculated using the Michaelis Menton equation (Km = [S] at 1/2 Vmax).
IC50 values were derived by plotting enzyme activity (V) vs. inhibitor concentration [I]. Dissociation constants (Ki) values for different inhibitors were determined by using the Cheng and Prusoff equation (Ki = IC50/1 + [S]/Km).

[2] = system: blastocysts; experiment: In vitro embryo hatching; format: cell-based
Text: In order to define a physiological role for the ISPs, the effect of inhibiting ISP activity upon embryo hatching, outgrowth (Fig. 6 and 7) and implantation (Table 1) was investigated. Blastocysts were first cultured in the presence or absence of anti-ISP mAbs or selected inhibitors. […] Similarly, the effect of varying concentrations of anti-ISP1 and anti-ISP2 mAbs was studied both individually and together (Fig. 7C, E and 7G).
(§1) Blastocysts were collected by flushing the uteri of day 3.5 post coetum dams with M2 (Sigma Aldrich and Co.) medium. For in vitro hatching experiments, blastocysts were cultured in micro drops of Knockout DMEM medium (Invitrogen) with serum replacement in a drop under mineral oil at 37°C and 5% CO2 [27]. For in vitro embryo outgrowth onto extracellular matrix, hatched blastocysts were cultured for an additional 48 h at 37°C and 5% CO2 in DMEM plus 5% (v/v) fetal bovine serum on […] Nunc tissue culture dishes coated with extracellular matrix derived from 10% Triton X-100 (v/v) treated mouse embryo fibroblasts. Inhibitors or anti-ISP mAbs were mixed into media at stated concentrations. For antibody inhibition experiments, anti-ISP hybridoma supernatants (or negative control supernatants) were mixed with embryo culture media at an appropriate concentration. For inhibitor experiments, negative controls contained the medium used to dispense Gabexate mesylate.

[3] = system: hatched blastocysts; experiment: In vitro embryo outgrowth onto extracellular matrix; format: cell-based; details: for Embryo death: 48 hrs
Text: Implantation was simulated in vitro by growth of the hatched blastocysts in culture plates coated with the extracellular matrix derived from mouse embryonic fibroblasts, which can be invaded by outgrowing embryos (Fig. 6C and 6D). The effect of Gabexate on blastocyst outgrowth is also incremental with increasing concentration of Gabexate (Fig. 7B). […] A similar result was not observed for individual or combined mAbs, possibly owing to the abundance of ISP enzyme that occurs within the uterine fluid.
as §1

[4] = system: hatched blastocysts; experiment: as above; format: cell-based
[5] = system: embryo implantation; experiment: Effect on pregnancy after injection into the uterine lumen; format: in vivo, CD1 mice; details: for # pregnant / # embryos: 10 ul of 10 mM per uterine horn at 2.5 dpc, examined at 7.5 dpc; for Rate (%) of pregnancy: rate of pregnancy in Controls assumed as 100%
Protocol: CD1 mice were obtained at the age of 6–8 weeks from Charles River Canada (St. Constant, Quebec) and maintained in a standard laboratory animal facility with controlled temperature (20°C), humidity and light cycle (lights on between 0700 and 1900 hr). The maintenance and treatment of animals was in full compliance with the Standard laboratory animal care protocols approved by the University of Calgary Animal Care Committee. To obtain natural pregnancies, female mice were paired with adult males and checked daily for the presence of vaginal copulatory plugs, as an indication of mating. The day of plug detection is designated as day 0.5 post coetum. For collection of uteri and embryos, pregnant dams were sacrificed on a specific day by cervical dislocation.
Uterine horns were exposed surgically whereupon inhibitor or anti-ISP antibodies were injected into the uterine lumen using the minimum possible volume (10 μl fluid was injected per horn). Since Gabexate was dissolved in normal saline, the control mice were injected with normal saline solution.

[6] = 4 mM BAPNA substrate, 25 mM Tris.Cl pH 8.0, room temperature, read-out: IC50%
[7] = Expt 06, 0.01 mM, 5 embryos/drop, control 4
[8] = Expt 06, 0.05 mM, 5 embryos/drop, control 4
[9] = Expt 06, 0.1 mM, 5 embryos/drop, control 4
[10] = Expt 07, 0.1 mM, 5 embryos/drop, control 6 of 6
[11] = Expt 07, 0.5 mM, 6 embryos/drop, control 6
[12] = Expt 04, 0.1 mM, 6 embryos/drop, control 6
[13] = Expt 04, 0.25 mM, 6 embryos/drop, control 6

T1 sequence (Q924N9 27-274): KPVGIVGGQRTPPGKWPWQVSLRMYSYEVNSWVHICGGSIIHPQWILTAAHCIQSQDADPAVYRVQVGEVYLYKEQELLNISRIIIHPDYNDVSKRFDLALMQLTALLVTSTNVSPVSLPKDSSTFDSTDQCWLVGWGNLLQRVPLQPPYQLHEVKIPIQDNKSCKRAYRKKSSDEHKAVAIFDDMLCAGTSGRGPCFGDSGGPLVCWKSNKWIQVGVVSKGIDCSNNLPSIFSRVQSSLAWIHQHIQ
T1 sequence (Q99MS4 18-279): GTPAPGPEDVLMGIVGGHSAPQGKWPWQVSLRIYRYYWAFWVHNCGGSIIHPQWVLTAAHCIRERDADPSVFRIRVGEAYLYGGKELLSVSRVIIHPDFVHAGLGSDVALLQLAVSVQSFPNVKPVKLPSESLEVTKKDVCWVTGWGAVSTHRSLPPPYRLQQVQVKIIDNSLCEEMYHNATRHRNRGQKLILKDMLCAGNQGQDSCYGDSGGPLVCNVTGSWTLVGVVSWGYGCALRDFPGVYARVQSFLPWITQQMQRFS

UPTI: rPorcine Uterine Plasmin Trypsin Inhibitor
IC50 ([1]; BAPNA substrate, no effect up to stated concentration, read-out: IC50% (No effect up to)): > 500000 µM

N=C(N)c1ccccc1 [Benzamidine hydrochloride]
Embryo death ([2]; Expt 01, 50 mM, 12 embryos/drop, 24 hrs): all died | Embryos hatched after 24 hrs. ([2]; Expt 01, 50 mM, 12 embryos/drop, control 9): 0 | Embryo death ([2]; Expt 02, 20 mM, 10 embryos/drop, 24 hrs): all died | Embryos hatched after 24 hrs. ([2]; Expt 02, 20 mM, 10 embryos/drop, control 5): 0 | Embryos hatched after 24 hrs. ([2]; Expt 03, 0.5 mM, 11 embryos/drop, control 5): 3 | Embryos hatched after 48 hrs. ([2]; Expt 03, 0.5 mM, 11 embryos/drop, control 10): 4 | Embryos hatched after 24 hrs. ([2]; Expt 03, 1 mM, 11 embryos/drop, control 5): 4 | Embryos hatched after 48 hrs. ([2]; Expt 03, 1 mM, 11 embryos/drop, control 10): 7 | Embryos hatched after 24 hrs. ([2]; Expt 03, 4 mM, 11 embryos/drop, control 5): 2 | Embryos hatched after 48 hrs. ([2]; Expt 03, 4 mM, 11 embryos/drop, control 10): 2 | Ki ([1]; BAPNA substrate): 44300 µM | Influence on ISP activity [1]: inhibitory influence | Embryo death ([3]; Experiment 01, 50 mM, 12 hatched embryos): all died | Embryos outgrown after 48 hrs. ([3]; Experiment 01, 50 mM, 12 hatched embryos, control 9): 0 | Embryo death ([3]; Experiment 02, 4 mM, 10 hatched embryos): all died | Embryos outgrown after 48 hrs. ([3]; Experiment 02, 4 mM, 10 hatched embryos, control 10): 0

N=C(N)c1ccc(CS(=O)(=O)F)cc1 [APMSF, 4-(Amidino-Phenyl)-Methane-Sulfonyl Fluoride]
IC50 [1, 6]: 19500 µM | Ki ([1]; BAPNA substrate): 5310 µM | Influence on ISP activity [1]: inhibitory influence

CCOC(=O)c1ccc(OC(=O)CCCCCNC(=N)N)cc1 [Gabexate mesylate]
Embryo death ([2]; CD1, mouse, 24 h, 0.1 mM): all died | Embryo death ([2]; CD1, mouse, 24 h, 0.5 mM): all died | Embryo death ([2]; CD1, mouse, 24 h, 2 mM): all died | Embryos hatched after 24 hrs. ([2]; Expt 05, 0.1 mM, 6 embryos/drop, control 6): 0 | Embryos hatched after 24 hrs. ([2]; Expt 05, 0.5 mM, 6 embryos/drop, control 6): 0 | Embryos hatched after 24 hrs. ([2]; Expt 05, 2.0 mM, 6 embryos/drop, control 6): 0 | Embryos hatched after 24 hrs. [2, 7]: 4 | Embryos hatched after 48 hrs. [2, 7]: 4 | Embryos hatched after 24 hrs. [2, 8]: 4 | Embryos hatched after 48 hrs. [2, 8]: 4 | Embryos hatched after 24 hrs. [2, 9]: 0 | Embryos hatched after 48 hrs. [2, 9]: 2 | Embryos hatched after 24 hrs. [2, 10]: 0 | Embryos hatched after 48 hrs. [2, 10]: 2 | Embryos hatched after 24 hrs. [2, 11]: 0 | Embryos hatched after 48 hrs. [2, 11]: 0 | Embryos hatched after 24 hrs. ([2]; Expt 08, 0.1 mM, 16 embryos/drop, control 4 of 17): 3 | Embryos hatched after 48 hrs. ([2]; Expt 08, 0.1 mM, 16 embryos/drop, control 12 of 17): 3 | Embryos hatched after 24 hrs. ([2]; Expt 08, 0.5 mM, 17 embryos/drop, control 4): 1 | Embryos hatched after 48 hrs. ([2]; Expt 08, 0.5 mM, 17 embryos/drop, control 12): 3 | Effect on in vitro embryo hatching ([2]; compared to controls): almost completely inhibited | IC50 [1, 6]: 1800 µM | Affinity for ISP enzyme [1]: relatively high affinity | Ki ([1]; BAPNA substrate): 490 µM | Influence on ISP activity [1]: inhibitory influence | Embryos outgrown after 72 hrs. ([4]; Experiment 03, 0.1 mM, 8 hatched embryos, control 7): 4 | Embryos outgrown after 72 hrs. ([4]; Experiment 03, 0.5 mM, 8 hatched embryos, control 7): 2 | Embryos outgrown after 72 hrs. ([4]; Experiment 04, 0.1 mM, 11 hatched embryos, control 9): 6 | Embryos outgrown after 72 hrs. ([4]; Experiment 04, 0.5 mM, 11 hatched embryos, control 9): 2 | Embryos outgrown after 48 hrs. ([3]; Experiment 03, 0.1 mM, 8 hatched embryos, control 5): 0 | Embryos outgrown after 48 hrs. ([3]; Experiment 03, 0.5 mM, 8 hatched embryos, control 5): 1 | Embryos outgrown after 48 hrs. ([3]; Experiment 04, 0.1 mM, 11 hatched embryos, control 6): 5 | Embryos outgrown after 48 hrs. ([3]; Experiment 04, 0.5 mM, 11 hatched embryos, control 6): 1 | Effect on in vitro embryo outgrowth ([3]; compared to controls): almost completely inhibited | # pregnant ([5]; group 1, 11 mice, Control 1: 6 of 6): 1 | # embryos ([5]; group 1, 11 mice, Control 1: 72): 2 | Rate (%) of pregnancy ([5]; group 1): 2.8% | # pregnant ([5]; group 2, 6 mice, Control 2: 4 of 4): 1 | # embryos ([5]; group 2, 6 mice, Control 2: 22): 3 | Rate (%) of pregnancy ([5]; group 2): 13.6% | Effect on embryo implantation in vivo ([5]; injected into the uterine lumen at 2.5 dpc, compared with controls): rate of pregnancy drops to very low

N=C(N)c1ccc2[nH]c(Cc3nc4cc(C(=N)N)ccc4[nH]3)nc2c1 [BABIM, Bis (5-amidino-2-benzimadozolyl) methane]
Embryos hatched after 24 hrs. [2, 12]: 5 | Embryos hatched after 48 hrs. [2, 12]: 6 | Embryos hatched after 24 hrs. [2, 13]: 1 | Embryos hatched after 48 hrs. [2, 13]: 1 | Embryo death ([2]; Expt 04, 0.5 mM, 6 embryos/drop, 24 hrs): all died | Embryos hatched after 24 hrs. ([2]; Expt 04, 0.5 mM, 6 embryos/drop, control 6): 0 | IC50 [1, 6]: 750 µM | Affinity for ISP enzyme [1]: relatively high affinity | Ki ([1]; BAPNA substrate): 204 µM | Influence on ISP activity [1]: inhibitory influence

Cc1ccc(S(=O)(=O)N[C@@H](CCCCN)C(=O)CCl)cc1.Cl [TLCK, L-1-chloro-3[4-tosyl-amido]-7-amino-2-heptanone-HCl]
IC50 [1, 6]: 8000 µM | Ki ([1]; BAPNA substrate): 2180 µM | Influence on ISP activity [1]: inhibitory influence
